From patent US20250333393A1, “HETEROCYCLIC COMPOUND AS TYK2 INHIBITOR, AND SYNTHESIS AND USE THEREOF” (ZHEJIANG WENDA PHARMACEUTICAL TECHNOLOGY CO., LTD., priority 2023, published 2025)
pIC50: −log10 of the molar value. Read-outs that look alike come from different tables or passages of the source.

Legend:
JAK3 (JH1) = JAK3 (JH1) (Homo sapiens (Human), UniProt P52333); assay: JAK family kinase experiment, JAK3 (JH1); format: biochemical
Method: (§1) 1.2.1. The compound was dissolved with DMSO to a storage concentration of 10 mM.
(§2) 1.2.2. A compound concentration of 100 times the final concentration was prepared in a compound dilution plate, which was diluted from the highest concentration point with a total of 4 concentration points using the 27 times dilution method, and transferred to the Echo plate.
(§3) 1.2.3. The compound was flushed from the Echo plate to the 384 experimental plate using an Echo instrument, and the compound become 11 concentration points of the 3-fold dilution matrix.
(§4) 1.2.4. 2× kinase working solution was prepared, which was added to a 384-well experimental plate at 5 μl per well. The compound and the kinase were incubated at room temperature for 15 minutes.
(§5) 1.2.5. 5 ul of 2× substrate (containing ATP) was added to the 384 well plate.
(§6) 1.2.6. Incubation was conducted at room temperature for 45 minutes.
(§7) 1.2.7. The detection reagent mixture was added to the 384-well plate, and centrifuged for 30 seconds, and incubation was conducted at room temperature for 60 minutes.
(§8) 1.2.8. The signal values were read using Envision Microplate Reader (PerkinElmer).
(§9) 1.3.1. XL-Fit software was used for data analysis to obtain IC50 of the compounds, Table 2.

TYK2(JH2) = TYK2(JH2) (Homo sapiens (Human), UniProt P29597); assay: Pseudo kinase experiment, TYK2 (JH2), tracer/Tb; format: binding
Sequence of TYK2(JH2) (P29597 589-875): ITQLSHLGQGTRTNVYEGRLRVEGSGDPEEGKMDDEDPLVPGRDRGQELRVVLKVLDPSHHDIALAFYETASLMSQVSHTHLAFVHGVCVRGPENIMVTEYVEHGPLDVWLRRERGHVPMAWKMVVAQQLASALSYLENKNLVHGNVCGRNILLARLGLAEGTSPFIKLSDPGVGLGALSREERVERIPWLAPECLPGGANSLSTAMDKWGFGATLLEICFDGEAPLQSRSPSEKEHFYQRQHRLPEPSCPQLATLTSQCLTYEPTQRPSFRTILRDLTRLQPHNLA
Method: (§10) 1.1.1. The compound was dissolved with DMSO to a storage concentration of 10 mM.
(§11) 1.1.2. A compound concentration of 200 times the final concentration was prepared in a compound dilution plate, which was diluted from the highest concentration point with a total of 4 concentration points using the 27 times dilution method, and transferred to the Echo plate.
(§12) 1.1.3. The compound was flushed from the Echo plate to the 384-well experimental plate using an Echo instrument, and the compound become 11 concentration points of the 3-fold dilution matrix.
(§13) 1.1.4. 5 μl of 3×TYK2(JH2) or JAK1(JH2) kinase was added to the 384-well experimental plate.
(§14) 1.1.5. 5 μl of 3×Tb was added to the 384-well experimental plate.
(§15) 1.1.6.5 μl of 3× Tracer was added to the 384-well experimental plate.
(§16) 1.1.7. Centrifugation was conducted for 30 seconds and incubation was carried out at room temperature for 60 minutes.
(§17) 1.1.8. The signal values were read using Envision Microplate Reader (PerkinElmer).
as §9

JAK1(JH2) = JAK1(JH2) (Homo sapiens (Human), UniProt P23458); assay: Pseudo kinase experiment, JAK1 (JH2), tracer/Tb; format: binding
Sequence of JAK1(JH2) (P23458 583-855): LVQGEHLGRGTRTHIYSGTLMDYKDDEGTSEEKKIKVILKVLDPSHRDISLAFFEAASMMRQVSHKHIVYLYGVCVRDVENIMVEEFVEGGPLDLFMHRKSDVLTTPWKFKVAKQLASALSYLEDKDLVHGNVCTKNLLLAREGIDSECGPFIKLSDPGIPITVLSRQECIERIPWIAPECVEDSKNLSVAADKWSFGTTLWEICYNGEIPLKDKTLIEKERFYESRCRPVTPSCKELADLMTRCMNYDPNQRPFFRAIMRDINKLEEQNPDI
Method: as §10, §11, §12, §13, §14, §15, §16, §17, §9

TYK2 (JH1) = TYK2 (JH1) (Homo sapiens (Human), UniProt P29597); assay: JAK family kinase experiment, TYK2 (JH1); format: biochemical
Sequence of TYK2 (JH1) (P29597 897-1176): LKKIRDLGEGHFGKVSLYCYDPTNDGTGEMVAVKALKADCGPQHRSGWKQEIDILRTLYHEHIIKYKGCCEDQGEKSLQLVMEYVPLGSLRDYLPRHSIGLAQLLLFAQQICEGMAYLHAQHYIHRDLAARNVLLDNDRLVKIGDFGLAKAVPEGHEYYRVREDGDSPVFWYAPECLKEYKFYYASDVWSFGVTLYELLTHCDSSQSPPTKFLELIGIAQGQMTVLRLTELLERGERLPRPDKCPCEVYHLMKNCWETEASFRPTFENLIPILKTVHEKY
Method: as §1, §2, §3, §4, §5, §6, §7, §8, §9

[1] = Drug concentrations in plasma samples and brain tissue samples after oral administration, LC-MS/MS; format: in vivo, female C57BL/6 mice; conditions: female, C57BL/6, mouse, 15 consecutive days, 2Hr after the last dose, mice; for Kp at 2 h: brain/plasma, read-out: Ratio (brain tissue to plasma concentration)
Method: The purpose of the study was to evaluate drug concentrations in plasma samples and brain tissue samples of female C57BL/6 mice after 15 consecutive days of oral administration of 10 mg/kg, 30 mg/kg, and 90 mg/kg of Compound 4S. The drug concentrations of Compound 4S in plasma samples and brain tissue homogenate samples were detected by the positive ion (ESI) multi-reactive ion monitoring (MRM) scanning mode of LC-MS instrument with a linear range of 1-10000 ng/mL.
Plasma samples from 10 mice orally administered with Compound 4S: For standard curves, QC samples, single blanks, and unknown samples, the sample volume was 10 μL and each was added with 200 μL of methanol: acetonitrile=1:1 (v/v) precipitant (containing 5 ng/mL of Terfenadine). For double-blank samples, each was added with 200 μL of Methanol: Acetonitrile=1:1 (v/v) precipitant. The samples were vortexed for 1 min and centrifuged for 15 min (4000 rpm, 4° C.) to obtain the supernatant solution, which was diluted by 10-fold using methanol: water=1:1 (v/v, containing 0.1% FA) as the diluent solution and then subjected to LC-MS/MS analysis.
Brain tissue homogenate samples from 10 mice orally administered with Compound 4S: For standard curves, QC samples, single blanks, and unknown samples, the sample volume was 50 μL and each was added with 200 μL of methanol: acetonitrile=1:1 (v/v) precipitant (containing 5 ng/mL of Terfenadine). For double-blank samples, a 50 μL sample of blank brain tissue homogenate was taken and added with 200 μL of methanol/acetonitrile (1:1, v/v) precipitant. The samples were vortexed for 1 min and centrifuged for 15 min (4000 rpm, 4° C.) to obtain the supernatant solution, which was diluted by 10-fold using methanol: water=1:1 (v/v, containing 0.1% FA) as the diluent solution and then subjected to LC-MS/MS analysis. Drug exposures in plasma samples and brain tissue samples at different administered doses and at different frequencies of administration of the same administered dose were compared (Table 3).

pSTAT5 in CD3+ cells = assay: Inhibition of IFN-alpha induced pSTAT5 expression in CD3+ cells (human PBMC), FACS assay; format: cell-based; conditions: IFN-α 20 ng/ml
Method: Test Example 1: The Inhibitory Effect of Compounds on the Expression of Pstat5 in CD3+ Cells Using FACS Assay
• DMSO, Sigma, Cat #D2650-100 mL, stored at room temperature. • Perm buffer III, BD Biosciences, Cat #558050, stored at 4° C. • Lyse/Fix buffer, BD Biosciences, Cat #558049, stored at room temperature. • EDTA, Invitrogen, Cat #15575-038, stored at room temperature. • PBS, Hyclone, Cat #SH30256.01, stored at 4° C. • PE Mouse Anti-Human CD3, BD Biosciences, Cat #555333, stored at 4° C. • Mouse anti-human Phospho-STAT5 (pY694) (Alexa Fluor® 647 Conjugate), • BD Biosciences, Cat #562076, stored at 4° C. • IFN-α, Biolegend, Cat #592702.
• 1) On the day of experiment, the compound was prepared into a 10 mM solution with DMSO, diluted to 1.5 mM in DMSO, and then diluted to 8 gradient concentrations in 3-fold dilutions Concentrations. • 2) 5 μL of the diluted compound was transferred into 120 ul of DPBS solution containing 0.1% BSA. • 3) Positive and negative control groups were set up, and 0.2% DMSO was added to the positive and negative control groups. 2.2 Experimental procedure • 1) 0.5 million and 67.5 ul of human PBMC cells was added to the 96-well cell culture plate per well. • 2) 3.5 ul of diluted compound was added and mixed well. • 3) Incubation was conducted in a 37° C. incubator for 60 minutes. • 4) IFN-alpha was diluted in DPBS containing 0.1% BSA to […], and PE anti-hCD3 antibody was diluted in DPBS containing 0.1% BSA to 3 fold. When the above 60-minute incubation was complete, diluted PE anti-hCD3 antibody was added at 5 ul per well and diluted IFN-α was added at 4 ul per well, i.e., the final concentration of IFN-α per well is 20 ng/ml. • 5) Incubation was conducted in a 37° C. incubator for 30 minutes. • 6) All cells were transferred to a 96-well deep well plate and 1 ml of 37° C. preheated lysis/fix buffer was added. • 7) Incubation was conducted at 37° C. in dark for 10 minutes. • 8) Centrifugation was carried out at 600 g for 5 minutes and then the supernatant was discarded. 1 ml PBS was added to wash for twice and then centrifuged. • 9) 1 ml of Perm buffer III was added to the cell precipitation. • 10) Incubation was conducted at 4° C. in dark for 30 minutes. • 11) Centrifugation was carried out at 600 g for 5 minutes and then the supernatant was discarded. 1 ml PBS was added to wash for twice and then centrifuged. • 12) APC anti-human pSTAT5 antibody was diluted in staining buffer by 200-fold, which was added to cell wells at 100 uL per well and mixed well. • 13) Incubation was conducted at room temperature for 40 minutes. • 14) Staining buffer was added to wash for twice with 1 mL for each well, and centrifugation was carried out at 600 g for 5 minutes. • 15) After discarding the supernatant, the cell precipitation was re-suspended in 300 μL of staining buffer. • 16) Sample loading and analysis were carried out in a flow cytometer. The IC50 of the samples to be tested was obtained from the above, Table 1.

JAK1 (JH1) = JAK1 (JH1) (Homo sapiens (Human), UniProt P23458); assay: JAK family kinase experiment, JAK1 (JH1); format: biochemical
Sequence of JAK1 (JH1) (P23458 875-1153): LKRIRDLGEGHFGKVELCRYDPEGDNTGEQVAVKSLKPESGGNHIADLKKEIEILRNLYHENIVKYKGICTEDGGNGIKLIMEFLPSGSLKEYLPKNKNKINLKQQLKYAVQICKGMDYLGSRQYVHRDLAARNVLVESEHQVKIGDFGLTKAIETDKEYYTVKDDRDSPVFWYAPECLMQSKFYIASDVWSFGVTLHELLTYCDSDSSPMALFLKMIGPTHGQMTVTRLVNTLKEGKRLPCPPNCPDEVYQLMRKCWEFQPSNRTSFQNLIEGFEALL
Method: as §1, §2, §3, §4, §5, §6, §7, §8, §9

JAK2 (JH1) = JAK2 (JH1) (Homo sapiens (Human), UniProt O60674); assay: JAK family kinase experiment, JAK2 (JH1); format: biochemical
Sequence of JAK2 (JH1) (O60674 849-1124): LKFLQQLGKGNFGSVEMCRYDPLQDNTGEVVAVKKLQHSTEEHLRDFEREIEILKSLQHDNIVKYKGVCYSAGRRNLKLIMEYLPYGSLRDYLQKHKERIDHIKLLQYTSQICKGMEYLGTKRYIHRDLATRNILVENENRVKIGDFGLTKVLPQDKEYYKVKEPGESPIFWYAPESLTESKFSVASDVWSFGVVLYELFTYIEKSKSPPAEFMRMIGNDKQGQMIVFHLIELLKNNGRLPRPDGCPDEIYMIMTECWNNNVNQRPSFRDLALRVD
Method: as §1, §2, §3, §4, §5, §6, §7, §8, §9

Sequence of JAK3 (JH1) (P52333 822-1111): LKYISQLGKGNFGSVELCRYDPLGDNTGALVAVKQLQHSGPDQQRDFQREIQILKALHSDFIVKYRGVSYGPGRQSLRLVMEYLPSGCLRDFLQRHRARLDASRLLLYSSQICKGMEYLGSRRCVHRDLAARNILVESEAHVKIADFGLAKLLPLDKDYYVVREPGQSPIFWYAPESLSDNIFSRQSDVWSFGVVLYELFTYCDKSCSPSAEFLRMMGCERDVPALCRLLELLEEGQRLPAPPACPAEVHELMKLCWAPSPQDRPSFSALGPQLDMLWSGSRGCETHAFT

**Q.** What does the source list for `[2H]C([2H])([2H])Oc1c(-c2cnn(C)n2)ccnc1Nc1cc(NC(=O)[C@H]2CC23CC3)ncc1C(=O)CC` [Compound 4S]?
**A.** pIC50 (JAK3 (JH1)): < 5.00; pIC50 (TYK2(JH2)): 9.54; pIC50 (JAK1(JH2)): 7.66; pIC50 (TYK2 (JH1)): < 5.00; concentration at 2 h ([1]; brain, 10 mg/kg, 10 mg QD oral, read-out: concentration in brain): 615 ng/mL; concentration at 2 h ([1]; brain, 30 mg/kg, 30 mg BID oral, read-out: concentration in brain): 2360 ng/mL; concentration at 2 h ([1]; brain, 30 mg/kg, 30 mg QD oral, read-out: concentration in brain): 2360 ng/mL; concentration at 2 h ([1]; brain, 90 mg/kg, 90 mg QD oral, read-out: concentration in brain): 6260 ng/mL; Kp at 2 h ([1]; 10 mg/kg, 10 mg QD oral): 0.788; Kp at 2 h ([1]; 30 mg/kg, 30 mg BID oral): 0.88; Kp at 2 h ([1]; 30 mg/kg, 30 mg QD oral): 1.11; Kp at 2 h ([1]; 90 mg/kg, 90 mg QD oral): 1.32; concentration at 2 h ([1]; plasma, 10 mg/kg, 10 mg QD oral, read-out: concentration in plasma): 784 ng/mL; concentration at 2 h ([1]; plasma, 30 mg/kg, 30 mg BID oral, read-out: concentration in plasma): 2740 ng/mL; concentration at 2 h ([1]; plasma, 30 mg/kg, 30 mg QD oral, read-out: concentration in plasma): 2040 ng/mL; concentration at 2 h ([1]; plasma, 90 mg/kg, 90 mg QD oral, read-out: concentration in plasma): 4720 ng/mL; pIC50 (pSTAT5 in CD3+ cells): > 7.30; pIC50 (JAK1 (JH1)): < 5.00; pIC50 (JAK2 (JH1)): 5.27

**Q.** With `[2H]C([2H])([2H])Oc1c(-c2cnn(C)n2)ccnc1Nc1cc(NC(=O)[C@@H]2CC23CC3)ncc1C(=O)CC` [Compound 4R] as the molecule, how does the pIC50 (pSTAT5 in CD3+ cells) read?
**A.** Its pIC50 is less than 7.30.

**Q.** With `CCC(=O)c1cnc(NC(=O)[C@H]2CC23CC3)cc1Nc1nccc(-c2cnn(C)n2)c1OC` [Compound 1S] as the molecule, how does the pIC50 (pSTAT5 in CD3+ cells) read?
**A.** Its pIC50 is greater than 7.30.

**Q.** With `[2H]C([2H])([2H])n1ncc(-c2ccnc(Nc3cc(NC(=O)[C@@H]4CC45CC5)ncc3C(=O)CC)c2OC)n1` [Compound 3R] as the molecule, how does the pIC50 (pSTAT5 in CD3+ cells) read?
**A.** The pIC50 was greater than 7.30.

**Q.** With `[2H]C([2H])([2H])Oc1c(-c2cnn(C([2H])([2H])[2H])n2)ccnc1Nc1cc(NC(=O)[C@H]2CC23CC3)ncc1C(=O)CC` [Compound 5S] as the molecule, how does the pIC50 (pSTAT5 in CD3+ cells) read?
**A.** The pIC50 was greater than 7.30.

**Q.** With `[2H]C([2H])([2H])Oc1c(-c2cnn(C([2H])([2H])[2H])n2)ccnc1Nc1cc(NC(=O)[C@@H]2CC23CC3)ncc1C(=O)CC` [Compound 5R] as the molecule, how does the pIC50 (pSTAT5 in CD3+ cells) read?
**A.** The pIC50 was less than 7.30.

**Q.** With `CCC(=O)c1cnc(NC(=O)[C@@H]2CC23CC3)cc1Nc1cccc(-c2cnn(C)n2)c1OC` [Compound 2R] as the molecule, how does the pIC50 (pSTAT5 in CD3+ cells) read?
**A.** Its pIC50 is less than 7.30.

**Q.** With `CCC(=O)c1cnc(NC(=O)[C@H]2CC23CC3)cc1Nc1nc(C)cc(-c2cnn(C)n2)c1OC` [Compound 6S] as the molecule, how does the pIC50 (pSTAT5 in CD3+ cells) read?
**A.** Its pIC50 is greater than 7.30.

**Q.** With `CCC(=O)c1cnc(NC(=O)[C@@H]2CC23CC3)cc1Nc1nccc(-c2cnn(C)n2)c1OC` [Compound 1R] as the molecule, how does the pIC50 (pSTAT5 in CD3+ cells) read?
**A.** Its pIC50 is less than 7.30.

**Q.** With `[2H]C([2H])([2H])n1ncc(-c2ccnc(Nc3cc(NC(=O)[C@H]4CC45CC5)ncc3C(=O)CC)c2OC)n1` [Compound 3S] as the molecule, how does the pIC50 (pSTAT5 in CD3+ cells) read?
**A.** Its pIC50 is greater than 7.30.

**Q.** With `CCC(=O)c1cnc(NC(=O)[C@@H]2CC23CC3)cc1Nc1nc(C)cc(-c2cnn(C)n2)c1OC` [Compound 6R] as the molecule, how does the pIC50 (pSTAT5 in CD3+ cells) read?
**A.** The pIC50 was greater than 7.30.

**Q.** With `CCC(=O)c1cnc(NC(=O)[C@H]2CC23CC3)cc1Nc1cccc(-c2cnn(C)n2)c1OC` [Compound 2S] as the molecule, how does the pIC50 (pSTAT5 in CD3+ cells) read?
**A.** Its pIC50 is less than 7.30.
